# Results taken from PMC4414309, “Target Modulation by a Kinase Inhibitor Engineered to Induce a Tandem Blockade of the Epidermal Growth Factor Receptor (EGFR) and c-Src: The Concept of Type III Combi-Targeting” (PLoS ONE, 2015).
# Columns and labels:
# [1] = tested on: phospho-Src (Y416); experiment: Western blot of c-Src phosphorylation in cells; format: cell-based, mouse
# Description: (§1) NIH3T3-Her14 and 4T1 cells grown in 10% FBS containing media were plated (~ 1 x 10^6 cells/well) in 6-well plates and allowed to attach overnight (37°C, 5% CO2). The cells were rinsed twice with PBS twenty-four hours later and starved overnight on addition of serum-free media. Thereafter, they were treated with different doses of AL776 for 2 hours, washed with PBS (twice) and stimulated with 50 ng/ml EGF for 30 min at 37°C. Cells were washed, detached by scraping in ice-cold PBS and collected by centrifugation for 15 min at 3000 rpm. Cell pellets were re-suspended in cold lysis buffer 50 mM Tris-HCl pH 7.5; 150 mM NaCl; 1% Nonidet P-40, 1 mM EDTA; 5 mM NaF; 1 mM Na3VO4; protease inhibitor tablet (Roche Biochemicals, Laval, Canada)]. Lysates were kept on ice for 1 h and collected by centrifugation at 13,000 rpm for 20 min at 4°C. The concentration of protein was determined using the Bio-Rad protein assay kit (Bio-Rad laboratories, Hercules, CA). Equal amounts of proteins were loaded, resolved on 10% SDS-PAGE and thereafter transferred to a polyvinylidenedifluoride (PVDF) membrane (Milipore, Bedford, MA). […]
# [2] = tested on: 4T1 cells; experiment: Growth inhibition, SRB assay, 4T1; conditions: Mus musculus, 4T1, 120 h, read-out: IC50 growth inhibition 4T1
# Description: (§2) Growth inhibition was measured in cells using the sulforhodamine B (SRB) assay [48]. […] The plates were subsequently rinsed with 1% acetic acid, and allowed to dry overnight. […] The results were analyzed using GraphPad Prism 6.0 (GraphPadSoftware, Inc., San Diego, CA) and the sigmoidal dose response curve was used to determine IC50 values. Each experiment was carried out at least four times, in triplicate.
# [3] = tested on: c-Src phosphorylation in 4T1 tumours; experiment: Pharmacodynamics in 4T1 tumours, c-Src phosphorylation; conditions: i.v., AL776 40 mg/kg, gefitinib + dasatinib 20 mg/kg each
# Description: Mice were implanted with 4T1 mammary tumour cells, 15 million cells/flank (suspended in 200 μL PBS), subcutaneously.
# Mice were sacrificed 1h or 24h after treatment and their tumours were collected and snap frozen at -80°C for further analysis using western blots. Tumours were crushed using a mortar/pestle chilled using liquid nitrogen and lysed with RIPA buffer diluted to a 1X concentration and supplemented with 1mM PMSF (Cell Signaling Technology, USA). Western blot analysis was carried out with the tumour samples, similar to the method described earlier.
# [4] = tested on: NIH3T3-Her14 (EGFR transfected) cells; experiment: Growth inhibition, SRB assay, NIH3T3-Her14
# Description: as §2
# [5] = tested on: MDA-MB-231 cells; experiment: Boyden chamber invasion assay, MDA-MB-231; format: cell-based, human; conditions: MDA-MB-231, concentration as low as 0.1 μM, 24h
# Description: The invasive property of MDA-MB-231 and 4T1 cells was determined using the Boyden-chamber invasion assay. Cells suspended in serum-free media were plated (120–150,000 cells/well) onto polycarbonate transwell inserts (8 μm pore size, BD Biosciences) coated with matrigel (6%) (BD Biosciences), separating the top and bottom chambers (50 μl/filter). […] The invasive property of cells was observed 24h after treatment by fixing cells in formalin and staining with 0.1% crystal violet (Sigma-Aldrich Canada Ltd). Cells attached on the upper surface of the insert (top chamber) were removed by gently scraping away with a cotton swab, whereas those that invaded onto the lower side of the insert were observed using a microscope (Leica DM IL inverted microscope, 10X). Images of five non-overlapping fields of invading cells were captured using the Leica DFC300FX camera and quantification was done using the Scion Image Analysis (3.53.0.0) software and ImageJ 1.46r software. The results were expressed in terms of percentage of invading cells relative to control and the bar graphs represent the average of three independent experiments.
# [6] = tested on: 4T1 tumours; format: in vivo; conditions: 40 mg/kg i.v. once/day for 5 days
# [7] = target: T1, c-Src (Homo sapiens, UniProt P12931); experiment: In vitro kinase assay, c-Src; format: biochemical; conditions: ATP 50 μM, read-out: IC50 c-Src kinase inhibition
# T1 construct: purchased Enzo Life Sciences Inc, NY, USA; Signal Chem, Richmond, Canada
# Description: The EGFR and c-Src kinase assays were performed in 96-well plates (NuncMaxisorp) coated with PGT (poly L-glutamic acid L-tyrosine, 4:1, Sigma Aldrich, MO, USA) and incubated at 37°C for 48h prior to using. PGT served as the substrate to be phosphorylated by EGFR (Enzo Life Sciences Inc, NY, USA, Signal Chem, Richmond, Canada) and c-Src (Enzo Life Sciences Inc, NY, USA, Signal Chem, Richmond, Canada) in the presence of ATP (50 μM). […] To each well, 15 ng of EGFR (20 μg/ml) or 6 ng of c-Src (0.1 μg/μl) were added. The phosphorylated substrate was detected using an HRP-conjugated anti-phosphotyrosine antibody (Santa Cruz Biotechnology, CA). The signal was developed by the addition of 3, 3’, 5, 5’-tetramethylbenzidine peroxidase substrate (Kierkegaard and Perry Laboratories, Gaithersburg, MD) and the colorimetric reaction was monitored at 450 nm using a microplate reader ELx808 (BioTek Instruments). The IC50 values were calculated using GraphPad Prism 6.0 (GraphPadSoftware, Inc., San Diego, CA). Each experiment was carried out at least three times, in duplicate.
# [8] = tested on: phospho-EGFR (Y1068); experiment: Western blot of EGFR phosphorylation in cells; format: cell-based, mouse
# Description: as §1
# [9] = tested on: NIH3T3 wild type cells; experiment: Growth inhibition, sulforhodamine B (SRB) assay, NIH3T3 wild type; conditions: Mus musculus, NIH3T3, 120 h, read-out: IC50 growth inhibition NIH3T3 – Wt
# Description: as §2
# [10] = NIH3T3-Her14 and 4T1 cells, 2 h drug, EGF 50 ng/ml 30 min
# T1 sequence (P12931 whole entry): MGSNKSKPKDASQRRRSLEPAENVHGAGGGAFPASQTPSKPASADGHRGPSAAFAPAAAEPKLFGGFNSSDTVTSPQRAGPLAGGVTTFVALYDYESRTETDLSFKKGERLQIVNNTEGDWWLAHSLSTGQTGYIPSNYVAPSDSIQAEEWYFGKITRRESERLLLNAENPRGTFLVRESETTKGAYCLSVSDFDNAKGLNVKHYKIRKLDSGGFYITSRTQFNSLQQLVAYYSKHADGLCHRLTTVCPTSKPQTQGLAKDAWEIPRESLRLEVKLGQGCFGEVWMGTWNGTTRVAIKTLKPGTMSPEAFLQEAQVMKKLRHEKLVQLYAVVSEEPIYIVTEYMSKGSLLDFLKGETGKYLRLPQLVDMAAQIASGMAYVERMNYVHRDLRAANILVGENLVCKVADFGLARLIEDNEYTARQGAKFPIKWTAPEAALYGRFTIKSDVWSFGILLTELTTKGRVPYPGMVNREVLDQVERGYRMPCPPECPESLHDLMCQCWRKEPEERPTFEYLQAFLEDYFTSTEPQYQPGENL
smiles,measurement,setting,value
Cc1nc(Nc2ncc(C(=O)Nc3c(C)cccc3Cl)s2)cc(N2CCN(CCOC(=O)CCC(=O)OCCN(C)Cc3ccc(C(=O)Nc4ccc5ncnc(Nc6cccc(Cl)c6)c5c4)cc3)CC2)n1 [AL776],Concentration of maximal inhibition of c-Src phosphorylation,[1]; [10],1 µM
same,Concentration of robust inhibition of c-Src phosphorylation in cells,[1]; in cells,0.25 to 1 µM
same,IC50,[2],70 ± 10 nM
same,Inhibition of c-Src phosphorylation in tumours,[3]; 1h post-administration,strong blockade
same,Inhibition of c-Src phosphorylation in tumours,[3]; 24 h post-treatment,reversed
same,Rank of growth inhibitory potency among the binary targeting molecules,"[4]; EGFR transfectant, S2 Fig.",most potent on the EGFR transfectant
same,IC50,"[4]; Mus musculus, 120 h, read-out: IC50 growth inhibition NIH3T3 – Her14",180 nM
same,Growth inhibitory potency compared with gefitinib or dasatinib,"[4]; NIH3T3-Her14 cells, 5 days",2–4 fold
same,Effect on invasion,[5],strongly inhibited invasion
same,"Tumour mass at end of study, control versus treated",[6],no difference observed
same,Effect on tumour growth (tumour volume),[6]; monitored two weeks,unable to block tumour growth
same,IC50,[7],3 nM
same,Concentration of maximal inhibition of EGFR phosphorylation,[8]; [10],1 µM
same,Concentration of robust inhibition of EGFR phosphorylation in cells,[8]; in cells,0.25 to 1 µM
same,IC50,[9],7600 ± 3000 nM
